pIC50: −log10 of the molar value. Calls of active or inactive are those of the source. The rule behind the calls is not given here.
Key:
Influenza A virus [1] = experiment: Antiviral activity against Influenza A virus A/HK/8/68(H3N2) infected in MDCK cells assessed as inhibition of virus-induced cytopathic effects after 3 days by CCK-8 assay; format: functional, organism-based; details: 72 h
[2] = Cytotoxicity against MDCK cells after 3 days by CCK-8 assay; format: cell-based, Canis lupus familiaris; details: dog
Influenza A virus [3] = experiment: Antiviral activity against Influenza A virus A/WSN/33 (H1N1) infected in MDCK cells assessed as inhibition of nucleoprotein accumulation in nucleus at 10 uM after 4 hrs by fluorescent microscopy; format: functional, organism-based; details: A/WSN/1933(H1N1)
Influenza A virus [4] = experiment: Antiviral activity against Influenza A virus A/Guangdong/96 (H9N2) infected in MDCK cells assessed as inhibition of virus-induced cytopathic effects after 3 days by CCK-8 assay; format: functional, organism-based; details: 72 h
Influenza A virus [5] = experiment: Antiviral activity against Influenza A virus […] infected in MDCK cells assessed as inhibition of virus-induced cytopathic effects after 3 days by CCK-8 assay; format: functional, organism-based; details: 72 h
Influenza A virus [6] = experiment: Antiviral activity against Influenza A virus A/Mal/302/54 (H1N1) infected in MDCK cells assessed as inhibition of virus-induced cytopathic effects after 3 days by CCK-8 assay; format: functional, organism-based; details: 72 h
Influenza A virus [7] = experiment: Antiviral activity against Influenza A virus A/Brisbane/10/2007 (H3N2) infected in MDCK cells assessed as inhibition of virus-induced cytopathic effects after 3 days by CCK-8 assay; format: functional, organism-based; details: 72 h
Influenza A virus [8] = experiment: Antiviral activity against Influenza A virus A/Weiss/43 (H1N1) infected in MDCK cells assessed as inhibition of virus-induced cytopathic effects after 3 days by CCK-8 assay; format: functional, organism-based, Influenza A virus (A/Weiss/1943(H1N1)); details: 72 h
Influenza A virus [9] = experiment: Antiviral activity against Influenza A virus A/udorn/1972 (H3N2) infected in MDCK cells assessed as inhibition of virus-induced cytopathic effects after 3 days by CCK-8 assay; format: functional, organism-based; details: 72 h
Influenza A virus [10] = experiment: Antiviral activity against Influenza A virus A/Guangzhou/2009 (H1N1) infected in MDCK cells assessed as inhibition of virus-induced cytopathic effects after 3 days by CCK-8 assay; format: functional, organism-based; details: 72 h

Row | Structure (SMILES) | pIC50 (Influenza A virus [1]) | CC50 at 72 h [2] [µM] | also measured
1 | COc1cc([N+](=O)[O-])ccc1N1CCN(C(=O)c2c(C)nnn2-c2ccccc2OC)CC1 | < 4.30 | > 100 | 
2 | Cc1nnn(-c2ccccc2Cl)c1C(=O)N1CCN(c2ccc([N+](=O)[O-])cc2Cl)CC1 | 5.25 | > 100 | 
3 | Cc1[nH]nc(-c2ccccc2Cl)c1C(=O)N1CCN(c2ccc([N+](=O)[O-])cc2Cl)CC1 | 5.54 |  | 
4 | Cc1nnn(-c2ccc(Cl)cc2)c1C(=O)N1CCN(c2ccc([N+](=O)[O-])cc2Cl)CC1 | < 4.30 | > 100 | 
5 | Cc1noc(-c2ccccc2)c1C(=O)N1CCN(c2ccc([N+](=O)[O-])cc2Cl)CC1 | 5.22 |  | 
6 | Cc1ccccc1-n1nnc(C)c1C(=O)N1CCN(c2ccc([N+](=O)[O-])cc2Cl)CC1 | 5.31 | > 100 | 
7 | NC12CC3CC(CC(C3)C1)C2 [AMANTADINE] | 5.65 | > 100 | 
8 | COc1ccc(-n2nnc(C)c2C(=O)N2CCN(c3ccc([N+](=O)[O-])cc3Cl)CC2)cc1 | 4.83 | > 100 | 
9 | CCOc1ccccc1-n1nnc(C)c1C(=O)N1CCN(c2ccc([N+](=O)[O-])cc2Cl)CC1 | 5.05 | > 100 | 
10 | Cc1nnn(-c2ccccc2O)c1C(=O)N1CCN(c2ccc([N+](=O)[O-])cc2Cl)CC1 | 5.11 | > 100 | 
11 | COc1ccccc1-n1nnc(C)c1C(=O)N1CCN(c2ccccc2Cl)CC1 | < 4.30 | > 100 | 
12 | CC(=O)c1ccccc1-n1nnc(C)c1C(=O)N1CCN(c2ccc([N+](=O)[O-])cc2Cl)CC1 | 4.83 | > 100 | 
13 | COc1ccccc1-n1nncc1C(=O)N1CCN(c2ccc([N+](=O)[O-])cc2Cl)CC1 | < 4.30 | > 100 | 
14 | COc1ccccc1-n1nnc(C)c1C(=O)N1CCN(c2ccc([N+](=O)[O-])cc2)CC1 | < 4.30 | > 100 | 
15 | Cc1nnn(-c2cccc(Cl)c2)c1C(=O)N1CCN(c2ccc([N+](=O)[O-])cc2Cl)CC1 | 5.03 | > 100 | 
16 | COc1cccc(OC)c1-n1nnc(C)c1C(=O)N1CCN(c2ccc([N+](=O)[O-])cc2Cl)CC1 | 5.62 | > 100 | 
17 | COc1ccccc1-c1onc(C)c1C(=O)N1CCN(c2ccc([N+](=O)[O-])cc2Cl)CC1 | 5.58 |  | 
18 | CCc1nnn(-c2ccccc2OC)c1C(=O)N1CCN(c2ccc([N+](=O)[O-])cc2Cl)CC1 | < 4.30 | > 100 | 
19 | COc1cccc(-n2nnc(C)c2C(=O)N2CCN(c3ccc([N+](=O)[O-])cc3Cl)CC2)c1 | 4.86 | > 100 | 
20 | COc1ccccc1-n1nnc(C)c1C(=O)N1CCN(c2ccc([N+](=O)[O-])cc2Cl)CC1 | 5.71 | > 100 | inhibition (Influenza A virus [3]): Active; pIC50 (Influenza A virus [4]): 5.34; pIC50 (Influenza A virus [5]): 5.73; pIC50 (Influenza A virus [6]): 6.05; pIC50 (Influenza A virus [7]): < 4.30; pIC50 (Influenza A virus [8]): 6.18; pIC50 (Influenza A virus [9]): 5.93; pIC50 (Influenza A virus [10]): 6.28
21 | Cc1nnn(-c2ccccc2OC(C)C)c1C(=O)N1CCN(c2ccc([N+](=O)[O-])cc2Cl)CC1 | 4.79 | > 100 | 
22 | Cc1nnn(-c2ccccc2)c1C(=O)N1CCN(c2ccc([N+](=O)[O-])cc2Cl)CC1 | 5.29 | > 100 | 
23 | Cc1[nH]nc(-c2ccccc2)c1C(=O)N1CCN(c2ccc([N+](=O)[O-])cc2Cl)CC1 | 5.06 |  | 
24 | Cc1onc(-c2ccccc2)c1C(=O)N1CCN(c2ccc([N+](=O)[O-])cc2Cl)CC1 [NUCLEOZIN] | 5.97 | 15.9 | pIC50 (Influenza A virus [4]): 5.41; pIC50 (Influenza A virus [5]): 5.80; pIC50 (Influenza A virus [6]): 6.28; pIC50 (Influenza A virus [7]): 4.91; pIC50 (Influenza A virus [8]): 6.70; pIC50 (Influenza A virus [9]): 6.47; pIC50 (Influenza A virus [10]): 6.27
25 | COc1ccccc1-n1nnc(C)c1C(=O)N1CCCN(c2ccc([N+](=O)[O-])cc2Cl)CC1 | < 4.30 | > 100 | 
26 | COc1ccccc1-c1ccccc1C(=O)N1CCN(c2ccc([N+](=O)[O-])cc2Cl)CC1 | 5.43 |  | 
27 | O=C(c1ccccc1-c1ccccc1)N1CCN(c2ccc([N+](=O)[O-])cc2Cl)CC1 | 5.12 |  | 
28 | COc1ccccc1-n1nnc(C)c1C(=O)N1CCN(c2ccccc2)CC1 | < 4.30 | > 100 | 

From ChEMBL document CHEMBL2029340 (J Med Chem, 2012)
